Our source for the IC50 values is ChEMBL document CHEMBL1125828 (J Med Chem, 1991).

GABA B receptor, sequence (Q9Z0U4 whole entry): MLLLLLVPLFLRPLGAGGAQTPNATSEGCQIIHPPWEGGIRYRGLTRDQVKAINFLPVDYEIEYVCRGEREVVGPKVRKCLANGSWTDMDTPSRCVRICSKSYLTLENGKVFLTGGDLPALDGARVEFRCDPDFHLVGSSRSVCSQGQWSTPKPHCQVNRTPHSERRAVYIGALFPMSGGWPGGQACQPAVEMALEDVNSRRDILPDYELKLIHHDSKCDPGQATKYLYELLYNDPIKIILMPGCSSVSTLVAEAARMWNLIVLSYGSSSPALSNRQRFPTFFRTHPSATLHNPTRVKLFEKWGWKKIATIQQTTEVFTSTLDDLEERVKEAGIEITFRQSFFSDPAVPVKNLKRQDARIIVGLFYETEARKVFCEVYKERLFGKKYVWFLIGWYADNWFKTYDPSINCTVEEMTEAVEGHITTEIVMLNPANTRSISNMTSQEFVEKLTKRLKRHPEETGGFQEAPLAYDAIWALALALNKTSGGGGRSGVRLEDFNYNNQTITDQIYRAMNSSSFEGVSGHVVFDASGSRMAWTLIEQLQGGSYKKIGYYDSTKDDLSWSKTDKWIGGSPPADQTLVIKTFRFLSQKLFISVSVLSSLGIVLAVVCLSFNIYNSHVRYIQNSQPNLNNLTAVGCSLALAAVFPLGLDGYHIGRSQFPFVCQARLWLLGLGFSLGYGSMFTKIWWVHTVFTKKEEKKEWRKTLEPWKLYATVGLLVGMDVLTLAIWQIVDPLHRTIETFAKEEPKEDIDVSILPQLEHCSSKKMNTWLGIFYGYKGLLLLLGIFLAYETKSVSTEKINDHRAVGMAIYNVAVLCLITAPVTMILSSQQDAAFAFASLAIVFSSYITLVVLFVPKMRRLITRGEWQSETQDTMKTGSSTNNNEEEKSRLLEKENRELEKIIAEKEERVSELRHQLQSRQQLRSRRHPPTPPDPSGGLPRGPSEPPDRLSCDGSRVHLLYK
GABA B receptor, sequence (O88871 whole entry): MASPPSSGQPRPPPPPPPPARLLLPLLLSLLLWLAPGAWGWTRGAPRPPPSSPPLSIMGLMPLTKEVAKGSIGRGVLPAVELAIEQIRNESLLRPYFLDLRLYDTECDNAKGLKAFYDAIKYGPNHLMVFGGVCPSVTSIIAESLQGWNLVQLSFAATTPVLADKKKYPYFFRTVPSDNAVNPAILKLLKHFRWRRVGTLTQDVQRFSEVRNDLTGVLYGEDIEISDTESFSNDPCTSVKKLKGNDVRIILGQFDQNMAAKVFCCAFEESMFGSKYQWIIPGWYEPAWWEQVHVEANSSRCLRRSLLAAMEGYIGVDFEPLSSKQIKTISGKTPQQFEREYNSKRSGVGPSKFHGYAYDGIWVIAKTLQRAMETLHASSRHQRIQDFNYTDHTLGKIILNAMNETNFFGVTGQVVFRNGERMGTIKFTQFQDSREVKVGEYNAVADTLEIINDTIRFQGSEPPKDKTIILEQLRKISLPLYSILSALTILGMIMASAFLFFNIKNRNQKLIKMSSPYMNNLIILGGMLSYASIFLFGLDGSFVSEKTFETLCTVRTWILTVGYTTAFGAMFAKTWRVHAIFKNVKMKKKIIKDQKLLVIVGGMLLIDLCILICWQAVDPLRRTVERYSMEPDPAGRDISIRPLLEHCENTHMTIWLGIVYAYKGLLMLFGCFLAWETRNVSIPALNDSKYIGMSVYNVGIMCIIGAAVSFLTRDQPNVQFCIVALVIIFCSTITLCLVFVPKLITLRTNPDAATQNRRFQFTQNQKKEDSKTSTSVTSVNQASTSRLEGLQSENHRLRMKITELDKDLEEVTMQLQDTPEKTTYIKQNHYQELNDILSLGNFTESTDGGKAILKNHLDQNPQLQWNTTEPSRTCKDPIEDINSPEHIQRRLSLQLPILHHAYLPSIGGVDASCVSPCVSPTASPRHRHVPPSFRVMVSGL

The first assay has as its target GABA B receptor (Rattus norvegicus, UniProt O88871+Q9Z0U4). The assay is described as follows: Displacement of [3H]baclofen from gamma-aminobutyric-acid B receptor. It is filed as protein-complex assay. Background: In a radioligand displacement assay an active substance lowers the binding of a labelled ligand.
Take `NCC1(CC(=O)O)CCc2ccccc21` (configuration not stated): the half-inhibitory concentration (IC50) was greater than 100 µM.
For `NCC1(CC(=O)O)Cc2ccccc21` (configuration not stated), the half-maximal inhibitory concentration (IC50) was greater than 100 µM.
On the same count and under the same terms, the result for `NCC1(CC(=O)O)CCc2cc(Cl)ccc21` (configuration not stated) reads greater than 100 µM.
In turn, `NCC(CC(=O)O)c1c(Cl)cccc1Cl` (configuration not stated) had an IC50 greater than 100 µM.
Same read-out and setting: the result for `NCC(CC(=O)O)c1ccc(Cl)cc1Cl` (configuration not stated) reads 11 µM; that for `NCC1(CC(=O)O)CCCc2ccccc21` (configuration not stated), greater than 100 µM.

A further assay deals with GABA-A receptor; anion channel. Put plainly: Inhibition of [3H]GABA binding to gamma-aminobutyric-acid A (GABA-A) receptor. Format: protein-complex assay, Rattus norvegicus.
In turn, `NCC1(CC(=O)O)CCc2ccccc21` (configuration not stated) yielded a concentration for half-maximal inhibition (IC50) greater than 100 µM.
For `NCC1(CC(=O)O)Cc2ccccc21` (configuration not stated), the IC50 is greater than 100 µM.
As to `NCC1(CC(=O)O)CCc2cc(Cl)ccc21` (configuration not stated), the IC50 is greater than 100 µM.
In the case of `NCC(CC(=O)O)c1c(Cl)cccc1Cl` (configuration not stated), the 50% inhibitory concentration (IC50) was greater than 100 µM.
The compound `NCC(CC(=O)O)c1ccc(Cl)cc1Cl` (configuration not stated) displayed an IC50 greater than 100 µM.
Consider `NCC1(CC(=O)O)CCCc2ccccc21` (configuration not stated), for which the IC50 was greater than 100 µM.

The term IC50 denotes the concentration needed to halve the response being measured. Low readings indicate greater potency, high ones weaker potency.
